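1) Cells in 96-well plates. 2) Compound, 48 h, 5 concentrations. 3) Linear interpolation between surrounding doses. 4) Unreached endpoint = highest concentration. Here, GI50 denotes the concentration required for 50% inhibition of growth.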 Activity calls are given as the source filed them. No stated cut-off is given here; in the data, active = GI50 up to about 1.1 µM and inactive = higher.
Legend:
Assay in all cases: DTP human tumour cell line panel, 48 h
UO-31 = test system: UO-31
HOP-62 = test system: HOP-62
T47D = test system: T47D
MDA-MB-435 = test system: MDA-MB-435
SF-295 = test system: SF-295
HCC 2998 = test system: HCC 2998
BT-549 = test system: BT-549
SK-MEL-5 = test system: SK-MEL-5
SW-620 = test system: SW-620
HT-29 = test system: HT-29
SNB-19 = test system: SNB-19
OVCAR-5 = test system: OVCAR-5
MDA-N = test system: MDA-N
DU-145 = test system: DU-145
RPMI-8226 = test system: RPMI-8226
UACC-257 = test system: UACC-257
HL-60 = test system: HL-60
PC-3 = test system: PC-3
NCI-H226 = test system: NCI-H226
HCT-15 = test system: HCT-15
SF-268 = test system: SF-268
NCI/ADR-RES = test system: NCI/ADR-RES
HOP-92 = test system: HOP-92
KM12 = test system: KM12
HCT-116 = test system: HCT-116
K562 = test system: K562
ACHN = test system: ACHN
786-0 = test system: 786-0
EKVX = test system: EKVX
SNB-75 = test system: SNB-75
A498 = test system: A498
NCI-H522 = test system: NCI-H522
M14 = test system: M14
UACC-62 = test system: UACC-62
A549 = test system: A549
IGROV-1 = test system: IGROV-1
NCI-H23 = test system: NCI-H23
OVCAR-8 = test system: OVCAR-8
MOLT-4 = test system: MOLT-4
RXF 393 = test system: RXF 393
TK-10 = test system: TK-10
SK-MEL-28 = test system: SK-MEL-28
SN12C = test system: SN12C
SR = test system: SR
Hs-578T = test system: Hs-578T
OVCAR-4 = test system: OVCAR-4
NCI-H460 = test system: NCI-H460
COLO 205 = test system: COLO 205
U-251 = test system: U-251
SK-OV-3 = test system: SK-OV-3
CCRF-CEM = test system: CCRF-CEM
SK-MEL-2 = test system: SK-MEL-2
CAKI-1 = test system: CAKI-1
OVCAR-3 = test system: OVCAR-3
LOX IMVI = test system: LOX IMVI
MDA-MB-231 = test system: MDA-MB-231

**Q.** `CC1(C)OC(=O)N(c2ccccc2)C12C=Cc1cc([N+](=O)[O-])ccc1O2` (stereo unspecified) was tested. Which GI50 (UO-31) did it give?
**A.** 25.1 µM (inactive)

**Q.** And the GI50 (HOP-62)?
**A.** 32.1 µM (inactive)

**Q.** And the GI50 (T47D)?
**A.** 33 µM (inactive)

**Q.** What about the GI50 (MDA-MB-435) of the same compound?
**A.** 20 µM (inactive)

**Q.** And the GI50 (SF-295)?
**A.** 37.5 µM (inactive)

**Q.** What about the GI50 (HCC 2998) of the same compound?
**A.** 29.2 µM (inactive)

**Q.** What about the GI50 (BT-549) of the same compound?
**A.** 51.6 µM (inactive)

**Q.** What about the GI50 (SK-MEL-5) of the same compound?
**A.** 36.4 µM (inactive)

**Q.** What about the GI50 (SW-620) of the same compound?
**A.** 65.6 µM (inactive)

**Q.** What about the GI50 (HT-29) of the same compound?
**A.** 35.5 µM (inactive)

**Q.** What about the GI50 (SNB-19) of the same compound?
**A.** 35.5 µM (inactive)

**Q.** What about the GI50 (OVCAR-5) of the same compound?
**A.** 26.9 µM (inactive)

**Q.** What about the GI50 (MDA-N) of the same compound?
**A.** 22.6 µM (inactive)

**Q.** And the GI50 (DU-145)?
**A.** 29.4 µM (inactive)

**Q.** What about the GI50 (RPMI-8226) of the same compound?
**A.** 48.5 µM (inactive)

**Q.** And the GI50 (UACC-257)?
**A.** 23.5 µM (inactive)

**Q.** What about the GI50 (HL-60) of the same compound?
**A.** 20.1 µM (inactive)

**Q.** And the GI50 (PC-3)?
**A.** 22.7 µM (inactive)

**Q.** What about the GI50 (NCI-H226) of the same compound?
**A.** 44 µM (inactive)

**Q.** And the GI50 (HCT-15)?
**A.** 48.8 µM

**Q.** What about the GI50 (SF-268) of the same compound?
**A.** 51.1 µM (inactive)

**Q.** What about the GI50 (NCI/ADR-RES) of the same compound?
**A.** 30.2 µM (inactive)

**Q.** What about the GI50 (HOP-92) of the same compound?
**A.** 20.2 µM (inactive)

**Q.** What about the GI50 (KM12) of the same compound?
**A.** 56.6 µM (inactive)

**Q.** What about the GI50 (HCT-116) of the same compound?
**A.** 33.3 µM (inactive)

**Q.** What about the GI50 (K562) of the same compound?
**A.** 29 µM (inactive)

**Q.** And the GI50 (ACHN)?
**A.** 97.1 µM (inactive)

**Q.** What about the GI50 (786-0) of the same compound?
**A.** 77.3 µM (inactive)

**Q.** And the GI50 (EKVX)?
**A.** 23.8 µM (inactive)

**Q.** And the GI50 (SNB-75)?
**A.** 43.2 µM (inactive)

**Q.** And the GI50 (A498)?
**A.** 32.4 µM (inactive)

**Q.** What about the GI50 (NCI-H522) of the same compound?
**A.** 25.8 µM (inactive)

**Q.** And the GI50 (M14)?
**A.** 11 µM (inactive)

**Q.** What about the GI50 (UACC-62) of the same compound?
**A.** 31.3 µM (inactive)

**Q.** And the GI50 (A549)?
**A.** 53.2 µM (inactive)

**Q.** And the GI50 (IGROV-1)?
**A.** 32.7 µM (inactive)

**Q.** And the GI50 (NCI-H23)?
**A.** 36.2 µM (inactive)

**Q.** What about the GI50 (OVCAR-8) of the same compound?
**A.** 51.6 µM (inactive)

**Q.** And the GI50 (MOLT-4)?
**A.** 21.7 µM (inactive)

**Q.** What about the GI50 (RXF 393) of the same compound?
**A.** 60.3 µM (inactive)

**Q.** And the GI50 (TK-10)?
**A.** 39.4 µM (inactive)

**Q.** And the GI50 (SK-MEL-28)?
**A.** 83.8 µM (inactive)

**Q.** And the GI50 (SN12C)?
**A.** 56.5 µM (inactive)

**Q.** What about the GI50 (SR) of the same compound?
**A.** 19.6 µM (inactive)

**Q.** What about the GI50 (Hs-578T) of the same compound?
**A.** 19.5 µM (inactive)

**Q.** And the GI50 (OVCAR-4)?
**A.** 61.8 µM (inactive)

**Q.** And the GI50 (NCI-H460)?
**A.** 49.9 µM (inactive)

**Q.** What about the GI50 (COLO 205) of the same compound?
**A.** 45.3 µM (inactive)

**Q.** What about the GI50 (U-251) of the same compound?
**A.** 35.8 µM (inactive)

**Q.** And the GI50 (SK-OV-3)?
**A.** 28.9 µM (inactive)

**Q.** And the GI50 (CCRF-CEM)?
**A.** 29.1 µM (inactive)

**Q.** What about the GI50 (SK-MEL-2) of the same compound?
**A.** 33.4 µM (inactive)

**Q.** And the GI50 (CAKI-1)?
**A.** 50.1 µM (inactive)

**Q.** And the GI50 (OVCAR-3)?
**A.** 21.7 µM (inactive)

**Q.** And the GI50 (LOX IMVI)?
**A.** 48.2 µM (inactive)

**Q.** And the GI50 (MDA-MB-231)?
**A.** 19.4 µM (inactive)

From ChEMBL document CHEMBL1201862, “PubChem BioAssay data set” (2004)
